Data reported in the OligoGym collection.
Bases are written 5' to 3'; sugars and linkages follow in the same order, as letters with counts (s phosphorothioate, o phosphodiester; PS: all linkages phosphorothioate). The collection does not say whether C is 5-methylated. l = locked nucleic acid (LNA); d = 2'-deoxy (DNA)

Biological target: Tau
Test: rat primary cortical neurons, FLIPR, 25 uM ASO

Sequence	calcium oscillation score
CTTTATTTCCAAATTCACT (sugars l4 d10 l5, PS)	108 % of control
CTTTATTTCCAAATTCACT (sugars l5 d9 l1 d1 l3, PS)	110 % of control
CTTTATTTCCAAATTCACT (sugars l5 d9 l1 d2 l2, PS)	104 % of control
CTTTATTTCCAAATTCACT (sugars l5 d9 l2 d1 l2, PS)	108 % of control
CTTTATTTCCAAATTCACT (sugars l5 d9 l5, PS)	127 % of control
CTTTATTTCCAAATTCACTT (sugars l1 d17 l2, PS)	179 % of control
CTTTATTTCCAAATTCACTT (sugars l2 d1 l1 d12 l4, PS)	44.7 % of control
CTTTATTTCCAAATTCACTT (sugars l2 d1 l1 d13 l3, PS)	132 % of control
CTTTATTTCCAAATTCACTT (sugars l2 d1 l2 d11 l4, PS)	0 % of control
CTTTATTTCCAAATTCACTT (sugars l2 d1 l2 d12 l3, PS)	112 % of control
CTTTATTTCCAAATTCACTT (sugars l2 d2 l1 d11 l4, PS)	74.5 % of control
CTTTATTTCCAAATTCACTT (sugars l2 d2 l1 d12 l3, PS)	108 % of control
CTTTATTTCCAAATTCACTT (sugars l2 d16 l2, PS)	195 % of control
CTTTATTTCCAAATTCACTT (sugars l3 d1 l1 d11 l4, PS)	129 % of control
CTTTATTTCCAAATTCACTT (sugars l3 d1 l1 d12 l3, PS)	29.8 % of control
CTTTATTTCCAAATTCACTT (sugars l3 d11 l1 d2 l3, PS)	112 % of control
CTTTATTTCCAAATTCACTT (sugars l3 d14 l3, PS)	≥ 200 % of control
CTTTATTTCCAAATTCACTT (sugars l4 d11 l5, PS)	136 % of control
CTTTATTTCCAAATTCACTT (sugars l4 d12 l4, PS)	0 % of control
CTTTATTTCCAAATTCACTT (sugars l4 d13 l3, PS)	121 % of control
CTTTATTTCCAAATTCACTT (sugars l5 d10 l5, PS)	≥ 200 % of control
CTTTATTTCCAAATTCACTT (sugars l5 d11 l4, PS)	143 % of control
CTTTATTTCCAAATTCACTT (sugars ldlllddddddddddlldll, PS)	134 % of control
CTTTATTTCCAAATTCACTT (sugars lldllddddddddddlldll, PS)	117 % of control
CTTTCATCTACTTTTCAG (sugars l3 d12 l3, PS)	70.8 % of control
CTTTCCTAATTCCCAAATTC (sugars l3 d15 l2, PS)	60.9 % of control
CTTTCTACTCAATTCCAG (sugars l3 d12 l3, PS)	45.5 % of control

Sequence	calcium oscillation score
CTTTGAACACCCCATCTA (sugars l2 d14 l2, PS)	45.6 % of control
CTTTGAGTTGAGGGAC (sugars l3 d10 l3, PS)	29.1 % of control
CTTTGCTTTTACTGACCATG (sugars l3 d14 l3, PS)	0 % of control
CTTTGGCGTTCTCGCG (sugars l3 d10 l3, PS)	93.5 % of control
CTTTGTAATTCCTTCTCT (sugars l2 d13 l3, PS)	63.3 % of control
CTTTTAATTAAATTTCTCCC (sugars l2 d15 l3, PS)	87.6 % of control
CTTTTCCCAATTATTAAC (sugars l4 d10 l4, PS)	60.1 % of control
CTTTTCCCAATTATTAACC (sugars l3 d14 l2, PS)	54.5 % of control
CTTTTCTACTCTACTCTCAA (sugars l4 d14 l2, PS)	67.6 % of control
CTTTTCTCAATGTAACC (sugars l4 d10 l3, PS)	65.9 % of control
CTTTTCTTAAAGTTCAC (sugars l4 d9 l4, PS)	82.2 % of control
CTTTTGAACCCATTCCA (sugars l3 d12 l2, PS)	82.2 % of control
CTTTTGAACCCATTCCAC (sugars l3 d13 l2, PS)	110 % of control
CTTTTTCCATCTTACTAATA (sugars l3 d14 l3, PS)	46.5 % of control
CTTTTTCTTGTTCTAAC (sugars l2 d11 l4, PS)	57.9 % of control
CTTTTTCTTGTTCTAACC (sugars l3 d11 l4, PS)	62.3 % of control
CTTTTTTTTTCCACACTCTC (sugars l2 d14 l4, PS)	49 % of control
GAAAACCATCAACCAC (sugars l4 d8 l4, PS)	44.3 % of control
GAAAGAGGGCAGCAGG (sugars l3 d10 l3, PS)	0 % of control
GAAAGATGAAATTTGCTCTT (sugars l3 d14 l3, PS)	100 % of control
GAAATCCCTCTACTCC (sugars l2 d11 l3, PS)	70.7 % of control
GAAATCCCTCTACTCCA (sugars l3 d12 l2, PS)	73.7 % of control
GAACAGGAGAGCCATTTCCC (sugars l3 d14 l3, PS)	7.14 % of control
GAACTATTGATAAA (sugars l3 d8 l3, PS)	85.7 % of control
GAACTGCGAGGAGCAG (sugars l3 d10 l3, PS)	85.2 % of control
GAACTGGTTAGCCCTA (sugars l3 d10 l3, PS)	79.9 % of control
